Results reported in ChEMBL document CHEMBL1124317, “Rationale for the synthesis and preliminary biological evaluation of highly active new antitumor nitrosoureido sugars” (J Med Chem, 1989).

Key:
Mus musculus [1] = assay: Ratio of mice died to that of mice treated with 20 mg/kg of compound in olive oil intraperitoneally with B16 Melanocarcinoma; 0/20; format: functional; conditions: route intraperitoneal
Mus musculus [2] = assay: The number of B16 melanocarcinoma mice survived after 60 days with compound in olive oil injected by a dose of 20 mg/kg intraperitoneally; 2/20; format: functional; conditions: route intraperitoneal
Mus musculus [3] = assay: Ratio of mice died to that of mice treated with 20 mg/kg of compound in olive oil intraperitoneally with Lewis lung; 0/20; format: functional; conditions: route intraperitoneal
Mus musculus [4] = assay: The number of Lewis lung mice survived after 60 days with compound in olive oil injected by a dose of 20 mg/kg intraperitoneally; 15/20; format: functional; conditions: route intraperitoneal
Mus musculus [5] = assay: The number of B16 melanocarcinoma mice survived after 30 days with compound in olive oil injected by a dose of 20 mg/kg intraperitoneally; 13/20; format: functional; conditions: route intraperitoneal
Mus musculus [6] = assay: Ratio of mice died to that of mice treated with 20 mg/kg of compound in olive oil intraperitoneally with L1210 leukemia tumor; 0/15; format: functional; conditions: route intraperitoneal
Mus musculus [7] = assay: Median survival time of the non surviving mice; treated with 20 mg/kg of compound in olive oil to mice with B16 Melanocarcinoma; 14-55; format: functional
Mus musculus [8] = organism: Mus musculus; assay: Median survival time of the non surviving mice; there are two deaths on day 27, one death on day 29, and two deaths on day 41; format: functional, organism-based
Mus musculus [9] = assay: The number of Lewis lung mice survived after 30 days with compound in olive oil injected by a dose of 20 mg/kg intraperitoneally; 18/20; format: functional; conditions: route intraperitoneal
Mus musculus [10] = assay: Anti tumor activity in olive oil when treated to mice with B16 melanocarcinoma with 20 mg/kg dose of compound intraperitoneally was expressed as percent of treated to control (T/C %); format: functional; conditions: route intraperitoneal
Mus musculus [11] = assay: The number of L1210 Leukemia mice survived after 30 days with compound in olive oil injected by a dose of 20 mg/kg intraperitoneally; 12/15; format: functional; conditions: route intraperitoneal
Mus musculus [12] = assay: The number of L1210 Leukemia mice survived after 60 days with compound in olive oil injected by a dose of 20 mg/kg intraperitoneally; 10/15; format: functional; conditions: route intraperitoneal

COC1CC(NC(=O)N(CCCl)N=O)C(O)C(CNC(=O)N(CCCl)N=O)O1 (configuration not stated)
Ratio (Mus musculus [1]): 0 | Survivals (Mus musculus [2]): 2 | Ratio (Mus musculus [3]): 0 | Survivals (Mus musculus [4]): 15 | Survivals (Mus musculus [5]): 13 | Ratio (Mus musculus [6]): 0 | Median survival time (Mus musculus [7]): 31.37 | Median survival time (Mus musculus [8]): there are two deaths on day 27, one death on day 29, and two deaths on day 41 | Survivals (Mus musculus [9]): 18 | T/C (Mus musculus [10]): 225% | Survivals (Mus musculus [11]): 12 | Survivals (Mus musculus [12]): 10
